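Grown in 96-well plates, cells were treated for 48 hours with each compound at five concentrations. Insufficient inhibition: endpoint recorded as highest concentration tested. GI50 = concentration required for 50% inhibition of growth.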 Calls of active or inactive are those of the source. Rule as the data show it: active = GI50 up to about 1.1 µM and inactive = higher.
How the values were obtained:
Assay in all cases: growth of human tumour cells (NCI), 48 h
[1] = system: 786-0
[2] = system: A498
[3] = system: A549
[4] = system: ACHN
[5] = system: BT-549
[6] = system: CAKI-1
[7] = system: CCRF-CEM
[8] = system: COLO 205
[9] = system: DU-145
[10] = system: EKVX
[11] = system: HCC 2998
[12] = system: HCT-116
[13] = system: HCT-15
[14] = system: HL-60
[15] = system: HOP-62
[16] = system: HOP-92
[17] = system: HT-29
[18] = system: Hs-578T
[19] = system: IGROV-1
[20] = system: K562
[21] = system: KM12
[22] = system: LOX IMVI
[23] = system: M14
[24] = system: MCF7
[25] = system: MDA-MB-231
[26] = system: MDA-MB-435
[27] = system: MDA-N
[28] = system: MOLT-4
[29] = system: Malme-3M
[30] = system: NCI-H226
[31] = system: NCI-H23
[32] = system: NCI-H460
[33] = system: NCI-H522
[34] = system: NCI/ADR-RES
[35] = system: OVCAR-3
[36] = system: OVCAR-4
[37] = system: OVCAR-5
[38] = system: OVCAR-8
[39] = system: PC-3
[40] = system: RPMI-8226
[41] = system: RXF 393
[42] = system: SF-268
[43] = system: SF-295
[44] = system: SF-539
[45] = system: SK-MEL-28
[46] = system: SK-MEL-2
[47] = system: SK-MEL-5
[48] = system: SK-OV-3
[49] = system: SN12C
[50] = system: SNB-19
[51] = system: SNB-75
[52] = system: SR
[53] = system: SW-620
[54] = system: T47D
[55] = system: TK-10
[56] = system: U-251
[57] = system: UACC-257
[58] = system: UACC-62
[59] = system: UO-31

## C=C1C(=O)OC2/C=C(/C)C(OC(C)=O)CC(O)/C(C)=C\C(OC(=O)/C(C)=C\C)C12 (stereo not drawn)
[1]
  GI50: 17.1 µM (inactive)
[2]
  GI50: > 100 µM (inactive)
[3]
  GI50: > 100 µM (inactive)
[4]
  GI50: 42.8 µM (inactive)
[5]
  GI50: 53.5 µM (inactive)
[6]
  GI50: 30.5 µM (inactive)
[7]
  GI50: 28.6 µM (inactive)
[8]
  GI50: 34.4 µM (inactive)
[9]
  GI50: 53.8 µM (inactive)
[10]
  GI50: 78 µM (inactive)
[11]
  GI50: > 100 µM (inactive)
[12]
  GI50: 18.2 µM (inactive)
[13]
  GI50: 36.6 µM
[14]
  GI50: 17 µM (inactive)
[15]
  GI50: > 100 µM (inactive)
[16]
  GI50: 43.6 µM (inactive)
[17]
  GI50: 66.1 µM (inactive)
[18]
  GI50: > 100 µM (inactive)
[19]
  GI50: > 100 µM (inactive)
[20]
  GI50: 35.2 µM (inactive)
[21]
  GI50: > 100 µM (inactive)
[22]
  GI50: 28.5 µM (inactive)
[23]
  GI50: 53.6 µM (inactive)
[24]
  GI50: 34 µM (inactive)
[25]
  GI50: > 100 µM (inactive)
[26]
  GI50: 81.8 µM (inactive)
[27]
  GI50: 48.1 µM (inactive)
[28]
  GI50: 29.6 µM (inactive)
[29]
  GI50: 14.3 µM (inactive)
[30]
  GI50: > 100 µM (inactive)
[31]
  GI50: > 100 µM (inactive)
[32]
  GI50: > 100 µM (inactive)
[33]
  GI50: 10.6 µM (inactive)
[34]
  GI50: 58.9 µM (inactive)
[35]
  GI50: 46.6 µM (inactive)
[36]
  GI50: > 100 µM (inactive)
[37]
  GI50: > 100 µM (inactive)
[38]
  GI50: 35.3 µM (inactive)
[39]
  GI50: > 100 µM (inactive)
[40]
  GI50: 38.7 µM (inactive)
[41]
  GI50: 51.9 µM (inactive)
[42]
  GI50: > 100 µM (inactive)
[43]
  GI50: > 100 µM (inactive)
[44]
  GI50: > 100 µM (inactive)
[45]
  GI50: 43.2 µM (inactive)
[46]
  GI50: > 100 µM (inactive)
[47]
  GI50: > 100 µM (inactive)
[48]
  GI50: > 100 µM (inactive)
[49]
  GI50: 50.6 µM (inactive)
[50]
  GI50: > 100 µM (inactive)
[51]
  GI50: > 100 µM (inactive)
[52]
  GI50: 26.7 µM (inactive)
[53]
  GI50: 25.8 µM (inactive)
[54]
  GI50: 52.6 µM (inactive)
[55]
  GI50: > 100 µM (inactive)
[56]
  GI50: > 100 µM (inactive)
[57]
  GI50: > 100 µM (inactive)
[58]
  GI50: > 100 µM (inactive)

## CC(=O)OCC1OC(n2c3c(c(-c4ccc(Cl)cc4)c(C#N)c2=S)C(=O)CC(C)(C)C3)C(OC(C)=O)C(OC(C)=O)C1OC(C)=O (stereo not drawn)
[1]
  GI50: 12.8 µM (inactive)
[2]
  GI50: 30.3 µM (inactive)
[3]
  GI50: 38 µM (inactive)
[4]
  GI50: 28.5 µM (inactive)
[5]
  GI50: 3.14 µM (inactive)
[6]
  GI50: 11.4 µM (inactive)
[7]
  GI50: 3.95 µM (inactive)
[8]
  GI50: 25 µM (inactive)
[9]
  GI50: 50.9 µM (inactive)
[11]
  GI50: 4.68 µM (inactive)
[12]
  GI50: 19.1 µM (inactive)
[13]
  GI50: 14.2 µM
[14]
  GI50: 5.33 µM (inactive)
[15]
  GI50: 42 µM (inactive)
[16]
  GI50: 18.5 µM (inactive)
[17]
  GI50: 15.7 µM (inactive)
[18]
  GI50: 20.7 µM (inactive)
[19]
  GI50: 40.7 µM (inactive)
[20]
  GI50: 3.23 µM (inactive)
[21]
  GI50: 29.7 µM (inactive)
[22]
  GI50: 7.55 µM (inactive)
[23]
  GI50: 27.5 µM (inactive)
[24]
  GI50: 7.98 µM (inactive)
[25]
  GI50: 15.2 µM (inactive)
[26]
  GI50: 12.7 µM (inactive)
[27]
  GI50: 11.5 µM (inactive)
[28]
  GI50: 4.45 µM (inactive)
[29]
  GI50: 43.3 µM (inactive)
[30]
  GI50: 27.5 µM (inactive)
[31]
  GI50: 28.8 µM (inactive)
[32]
  GI50: 33.7 µM (inactive)
[33]
  GI50: 4.94 µM (inactive)
[34]
  GI50: 12 µM (inactive)
[35]
  GI50: 32.7 µM (inactive)
[36]
  GI50: 17.8 µM (inactive)
[37]
  GI50: 35.8 µM (inactive)
[38]
  GI50: 9.55 µM (inactive)
[39]
  GI50: 10.9 µM (inactive)
[40]
  GI50: 4.59 µM (inactive)
[41]
  GI50: 7.48 µM (inactive)
[42]
  GI50: 12.1 µM (inactive)
[43]
  GI50: 32.6 µM (inactive)
[44]
  GI50: 21.1 µM (inactive)
[45]
  GI50: 23.6 µM (inactive)
[46]
  GI50: 23.4 µM (inactive)
[47]
  GI50: 11.7 µM (inactive)
[49]
  GI50: 16 µM (inactive)
[50]
  GI50: > 45.4 µM (inactive)
[51]
  GI50: 11.4 µM (inactive)
[52]
  GI50: 4.12 µM (inactive)
[53]
  GI50: 7.06 µM (inactive)
[54]
  GI50: 6.98 µM (inactive)
[55]
  GI50: > 100 µM (inactive)
[56]
  GI50: 19.1 µM (inactive)
[57]
  GI50: 15.2 µM (inactive)
[58]
  GI50: 7.62 µM (inactive)
[59]
  GI50: 39.2 µM (inactive)

## CC(=O)CC(OC(C)=O)C1=CCC2C(CC1C)OC(=O)C2C (stereo not drawn)
[1]
  GI50: > 100 µM (inactive)
[2]
  GI50: > 100 µM (inactive)
[3]
  GI50: > 100 µM (inactive)
[4]
  GI50: > 100 µM (inactive)
[5]
  GI50: 75 µM (inactive)
[6]
  GI50: > 100 µM (inactive)
[7]
  GI50: 64.9 µM (inactive)
[8]
  GI50: > 100 µM (inactive)
[9]
  GI50: > 100 µM (inactive)
[10]
  GI50: > 100 µM (inactive)
[11]
  GI50: > 100 µM (inactive)
[12]
  GI50: > 100 µM (inactive)
[13]
  GI50: > 100 µM
[14]
  GI50: 40.6 µM (inactive)
[15]
  GI50: > 100 µM (inactive)
[16]
  GI50: > 100 µM (inactive)
[17]
  GI50: > 100 µM (inactive)
[18]
  GI50: > 100 µM (inactive)
[19]
  GI50: > 100 µM (inactive)
[20]
  GI50: > 100 µM (inactive)
[21]
  GI50: > 100 µM (inactive)
[22]
  GI50: 88.5 µM (inactive)
[23]
  GI50: > 100 µM (inactive)
[24]
  GI50: > 100 µM (inactive)
[25]
  GI50: > 100 µM (inactive)
[26]
  GI50: > 100 µM (inactive)
[27]
  GI50: > 100 µM (inactive)
[28]
  GI50: > 100 µM (inactive)
[29]
  GI50: > 100 µM (inactive)
[30]
  GI50: > 100 µM (inactive)
[31]
  GI50: > 100 µM (inactive)
[32]
  GI50: > 100 µM (inactive)
[33]
  GI50: > 100 µM (inactive)
[34]
  GI50: > 100 µM (inactive)
[35]
  GI50: > 100 µM (inactive)
[36]
  GI50: > 100 µM (inactive)
[37]
  GI50: > 100 µM (inactive)
[38]
  GI50: > 100 µM (inactive)
[39]
  GI50: > 100 µM (inactive)
[40]
  GI50: > 100 µM (inactive)
[41]
  GI50: > 100 µM (inactive)
[42]
  GI50: > 100 µM (inactive)
[43]
  GI50: > 100 µM (inactive)
[44]
  GI50: > 100 µM (inactive)
[45]
  GI50: > 100 µM (inactive)
[46]
  GI50: > 100 µM (inactive)
[47]
  GI50: > 100 µM (inactive)
[48]
  GI50: > 100 µM (inactive)
[49]
  GI50: > 100 µM (inactive)
[50]
  GI50: > 100 µM (inactive)
[51]
  GI50: > 100 µM (inactive)
[52]
  GI50: 78.9 µM (inactive)
[53]
  GI50: > 100 µM (inactive)
[54]
  GI50: > 100 µM (inactive)
[55]
  GI50: > 100 µM (inactive)
[56]
  GI50: > 100 µM (inactive)
[57]
  GI50: > 100 µM (inactive)
[58]
  GI50: > 100 µM (inactive)

Source: ChEMBL document CHEMBL1201862, “PubChem BioAssay data set” (2004)
